Experimental findings from ChEMBL document CHEMBL4411302, “Aryl H-phosphonates. 19. New anti-HIV pronucleotide phosphoramidate diesters containing amino- and hydroxypyridine auxiliaries” (Eur J Med Chem, 2019) are described below.

For series [1], the system named is Human immunodeficiency virus 1. Nature of the series: Antiviral activity against HIV1 infected in human CEM-T4 cells assessed as protection against virus-induced cytopathogenicity by measuring reduction in p24 level preincubated with cells for 24 hrs followed by viral infection and measured after 8 days by MTT assay. Type of series: functional, organism-based. In general terms: Protection from cytopathic effect is a common read-out in antiviral testing.

Series [2] can be described thus: Selectivity index, ratio of CC50 for human CEM-T4 cells to EC50 for HIV1 infected in human CEM-T4 cells. Type of series: toxicity, cell-based. As to conditions: read-out: Ratio CC50/EC50.
Series [3] in a line: Cytotoxicity against human CEM-T4 cells assessed as reduction in cell viability after 7 days by MTT assay. Type of series: cell-based. As to conditions: for CC50 at 168 h: CEM-T4 cells; for CC50: 168 h.
Series [4] is described as follows: Half life of the compound in RPMI media at 37 degC. The class given is physicochemical. As to conditions: for half-life: RPMI media.
Series [5] is described as follows: Prodrug activation in RPMI media assessed as hydrolysis by measuring P-O bond cleavage.
The nature of series [6]: Prodrug activation in RPMI media assessed as hydrolysis by measuring P-O bond cleavage measured after 24 days. The following applies: 576 h.
The nature of series [7]: Stability of the compound in RPMI media up to 7 days. Type of series: physicochemical. As to conditions: 168 h.
Where [8] appears, read: Human immunodeficiency virus 1, CEM-T4, read-out: EC50.

The term EC50 denotes the concentration at which the effect is half-maximal. Usually CC50 stands for the concentration giving 50% cytotoxicity. The term half-life denotes the time needed for the level to fall by half in the phase considered. Read a high half-life as slow decline. Take `O=c1ccn([C@H]2CC[C@@H](COP(=O)(Nc3ccccc3)Oc3cccnc3)O2)c(=O)[nH]1` (stereo partly specified): in series [1] (setting [8]), the EC50 is 7300 nM. In series [2], the selectivity ratio came out at 31. Also, the CC50 at 168 h in series [3] was found to be 225 µM. In series [4], this compound had a half-life of 5 days.

For `Cc1cn([C@H]2C[C@H](N=[N+]=[N-])[C@@H](COP(=O)(Nc3cccnc3)Oc3ccccc3)O2)c(=O)[nH]c1=O` (stereo partly specified), in series [1] (setting [8]), the EC50 was 35 nM. The selectivity ratio in series [2] is over 11400. Further, the CC50 at 168 h in series [3] is over 400 µM. The compound further showed a half-life in series [4] of 7 days.

`O=c1ccn([C@H]2CC[C@@H](COP(=O)(Nc3cccnc3)Oc3cccnc3)O2)c(=O)[nH]1` (stereo partly specified): in series [1] (setting [8]), the EC50 came out at 550 nM. The selectivity ratio in series [2] is over 364. For the same compound, the CC50 at 168 h in series [3] was over 200 µM. Further, the half-life in series [4] was 0.833 days.

Regarding `Cc1cn([C@H]2C[C@H](N=[N+]=[N-])[C@@H](COP(=O)(Nc3ccncc3)Oc3ccccn3)O2)c(=O)[nH]c1=O` (stereo partly specified), in series [1] (setting [8]), the 50% effective concentration (EC50) was found to be 160 nM. The selectivity ratio in series [2] is over 250. For the same compound, the CC50 at 168 h in series [3] was over 50 µM. In series [4], the half-life is 5 days.

With `Cc1cn([C@H]2C[C@H](N=[N+]=[N-])[C@@H](COP(=O)(Nc3ccccc3)Oc3cccnc3)O2)c(=O)[nH]c1=O` (stereo partly specified), in series [1] (setting [8]), the half-maximal effective concentration (EC50) is under 12 nM. The selectivity ratio in series [2] was over 30000. In addition, the CC50 at 168 h in series [3] worked out at 360 µM. In series [4], this compound had a half-life of 3.42 days.

Regarding `Cc1cn([C@H]2C[C@H](N=[N+]=[N-])[C@@H](COP(=O)(Nc3cccnc3)Oc3ccncc3)O2)c(=O)[nH]c1=O` (stereo partly specified), the EC50 entry in series [1] is “Nd(Unstable)”. For the same compound, the cytotoxic concentration (CC50) entry in series [3] is recorded as “Nd(Unstable)”. In addition, in series [5], the Drug metabolism entry was “Nd(Unstable)”. Moreover, the t1/2 entry in series [4] was “Nd(Unstable)”.

On to `Cc1cn([C@H]2C[C@H](N=[N+]=[N-])[C@@H](COP(=O)(Nc3ccccc3)Oc3ccncc3)O2)c(=O)[nH]c1=O` (stereo partly specified), for which the EC50 entry in series [1] is listed as “Nd(Unstable)”. In addition, the CC50 result in series [3] is recorded as “Nd(Unstable)”. For the same compound, the Drug metabolism result in series [5] is “Nd(Unstable)”. For the same compound, the t1/2 entry in series [4] is “Nd(Unstable)”.

In the case of `Cc1cn([C@H]2C[C@H](N=[N+]=[N-])[C@@H](COP(=O)(Nc3cccnc3)Oc3cccnc3)O2)c(=O)[nH]c1=O` (stereo partly specified), in series [1] (setting [8]), the EC50 is under 20 nM. In series [2], the selectivity ratio was over 10000. Further, in series [3], the CC50 at 168 h is over 200 µM. The same compound gave a half-life in series [4] of 1.12 days.

Turning to `Cc1cn([C@H]2C[C@H](N=[N+]=[N-])[C@@H](COP(=O)(Nc3cccnc3)Oc3ccccn3)O2)c(=O)[nH]c1=O` (stereo partly specified), the concentration for a half-maximal effect (EC50) in series [1] (setting [8]) amounted to 60 nM. Further, in series [2], the selectivity ratio was over 3300. In addition, the CC50 at 168 h in series [3] was over 200 µM. This compound showed a half-life in series [4] of 1.38 days.

As for `Cc1cn([C@H]2C[C@H](N=[N+]=[N-])[C@@H](COP(=O)(Nc3ccccc3)Oc3ccccc3)O2)c(=O)[nH]c1=O` (stereo partly specified), in series [6], the Drug metabolism entry is “Metabolite_Detected”. Moreover, the concentration giving a half-maximal response (EC50) in series [1] (setting [8]) was 75 nM. The selectivity ratio in series [2] is over 890. Moreover, in series [7], the Stability entry was “Stable”. The cytotoxic concentration (CC50) at 168 h in series [3] was over 66.8 µM.

Take `Cc1cn([C@H]2C[C@H](N=[N+]=[N-])[C@@H](COP(=O)(Nc3ccncc3)Oc3ccccc3)O2)c(=O)[nH]c1=O` (stereo partly specified): the EC50 in series [1] (setting [8]) amounted to 50 nM. For the same compound, the selectivity ratio in series [2] was over 8000. The 50% cytotoxic concentration (CC50) at 168 h in series [3] was over 400 µM. Besides, in series [4], the half-life was 8 days.

For `Cc1cn([C@H]2C[C@H](N=[N+]=[N-])[C@@H](COP(=O)(Nc3ccccc3)Oc3ccccn3)O2)c(=O)[nH]c1=O` (stereo partly specified), the concentration for a half-maximal effect (EC50) in series [1] (setting [8]) was under 12 nM. Besides, the selectivity ratio in series [2] was over 1830. In addition, the CC50 at 168 h in series [3] was over 22 µM. Also, in series [4], the half-life is 1.88 days.

With `Cc1cn([C@H]2C[C@H](N=[N+]=[N-])[C@@H](COP(=O)(Nc3ccncc3)Oc3cccnc3)O2)c(=O)[nH]c1=O` (stereo partly specified), in series [1] (setting [8]), the EC50 was determined as 200 nM. Also, the selectivity ratio in series [2] was over 250. The 50% cytotoxic concentration (CC50) at 168 h in series [3] was over 50 µM. The compound further had a half-life in series [4] of 4.38 days.

Consider `Cc1cn([C@H]2C[C@H](N=[N+]=[N-])[C@@H](COP(=O)(Nc3ccncc3)Oc3ccncc3)O2)c(=O)[nH]c1=O` (stereo partly specified), for which the concentration giving a half-maximal response (EC50) entry in series [1] is given as “Nd(Unstable)”. Further, the CC50 entry in series [3] is on record as “Nd(Unstable)”. The Drug metabolism result in series [5] is on record as “Nd(Unstable)”. Also, the t1/2 entry in series [4] is “Nd(Unstable)”.

Consider `O=c1ccn([C@H]2CC[C@@H](COP(=O)(Nc3cccnc3)Oc3ccccc3)O2)c(=O)[nH]1` (stereo partly specified), for which the EC50 in series [1] (setting [8]) is over 30000 nM. For the same compound, the selectivity ratio in series [2] was under 7.5. Moreover, the CC50 at 168 h in series [3] was 225 µM. Moreover, the half-life in series [4] is 7 days.
